The values below come from patent publication US20240285727A1, “NOVEL THERAPEUTIC PEPTIDES FOR NEURODEGENERATION” (UNIVERSITY OF SOUTHERN CALIFORNIA, priority 2021, published 2024).

Series [1] deals with C57BL/6J mice fed a high fat diet. Description: SHMOOSE in vivo: daily IP injections to mice fed a high fat diet, two weeks. The arrangement: species or system mouse. The text has this: The inventors also injected SHMOOSE intraperitoneally (IP) to 12-week-old C57BL/6J mice fed a high fat diet (i.e., a mild metabolic perturbation). At the conclusion of the two-week study, the inventors harvested brain and liver for RNA-Seq. As the inventors observed for SHMOOSE.D47N carriers and in in vitro experiments, 367 differentially expressed genes under a p adjusted value of 0.05 enriched mitochondrial and ribosomal terms in the liver (FIG. 3C). That is, liver expression differences were observed after SHMOOSE IP injections. Brain hypothalamus expression differences were also observed after SHMOOSE IP injections. Further, cortical expression differences were observed after SHMOOSE IP injections. However, while the inventors observed global gene expression changes as illustrated by PCA in the mouse cortex and hypothalamus, most enriched terms included central nervous system-related terms, not ribosomes nor mitochondrial specifics (FIG. 17). Furthermore, brain hippocampus expression differences were observed after SHMOOSE IP injections.
To examine the transcriptomes of mice treated with SHMOOSE, 12-week-old male […] mice were obtained from The Jackson Laboratory. Mice were fed a high fat diet for 10 days (60% total calories) prior to initiation of SHMOOSE daily IP injections (2.5 mg/kg). No more than 60 ul of volume were injected IP. […]

The nature of series [2]: SHMOOSE pharmacokinetics after intraperitoneal injection. Conditions: IP injected mice. The class given is in vivo, mouse. How it is done:
SHMOOSE pharmacokinetics was studied, where 2.5 mg SHMOOSE/kg in 25-week old C57/BI6 mice were intraperitoneally injected.

Another series relates to SHSY5Y. Description: Analogue screening assay, measured by MTT. The class given is cell-based. The conditions noted are these: as a percentage compared to SHMOOSE (SHMOOSE activity as 100%). The source says: FIG. 10 depicts an analogue screening assay, measured by MTT. Top: each bar represents a fragment (25-amino acid in length) of SHMOOSE. Bottom: each bar represents a phosphomimetic fragment (25-amino acid in length) of SHMOOSE. Cell model is SHSY5Y. The Inventors made 103 analogues/derivatives (see Table 1).
The Inventors made 103 analogues (Table 1). Referring to FIG. 10, in the top figure, each bar represents a 25-amino acid fragment of the SHMOOSE peptide. […] The sequence length of the analogue is 14 amino acids and 3 different analysis windows of the analogue, each having 11 amino acids, were characterized. […]

A further series concerns the target ATP5A1 (UniProt P25705 44-553, limits assumed). Description: binding of SHMOOSE to ATP5 subunits (FIG. 9C/9D); method not described.
Series [3] deals with the molecule itself. Briefly: Western blot of subcellular fractions of SHMOOSE-treated SH-SY5Y cells (FIG. 4A). How it is done:
Cytosolic, nuclear, and mitochondrial fractions were prepared from cultured SH-SY5Y cells. To extract nuclei, cells were washed in ice-cold DPBS and resuspended in fractionation buffer containing 10 mM HEPES pH 7.6, 3 mM MgCl2, 10 mM KCl, 5% (v/v) glycerol, 1% Triton-X100, and protease/phosphatase inhibitors for 15 minutes, followed by centrifugation for 5 minutes at 250×g and 4° C. The resulting supernatant was further centrifuged once more at 18,000×g for 10 minutes at 4° C. to obtain a relatively pure cytoplasmic fraction. The original pellet prior to the 18,000×g centrifugation was washed in 10 mM HEPES pH 7.6, 1.5 mM MgCl2, 10 mM KCl, and protease/phosphatase inhibitors and centrifuged at 250×g and 4° C. The washed pellet was then resuspended in nuclear extraction buffer containing 20 mM HEPES pH 7.6, 1.5 mM MgCl2, 420 mM NaCl, 25% (v/v) glycerol, 0.2 mM EDTA, and protease/phosphatase inhibitors, followed by three sonication periods of 5 seconds (separated by 10 seconds) with 30% amplitude on ice. The sonicated pellet was centrifuged at 18,000×g for 10 minutes at 4° C. to obtain a relatively pure nuclear lysate. To extract mitochondria, cells were washed in ice-cold DPBS and resuspended in 2 ml hypotonic buffer containing 10 mM NaCl, 1.5 mM MgCl2, and 10 mM Tris-HCl pH 7.5 for 7.5 minutes. […]
(In general: A western blot detects proteins with antibodies after separation by electrophoresis.)

Ends that are not written are not given here.

Chain of ATP5A1 (P25705 44-553 limits assumed): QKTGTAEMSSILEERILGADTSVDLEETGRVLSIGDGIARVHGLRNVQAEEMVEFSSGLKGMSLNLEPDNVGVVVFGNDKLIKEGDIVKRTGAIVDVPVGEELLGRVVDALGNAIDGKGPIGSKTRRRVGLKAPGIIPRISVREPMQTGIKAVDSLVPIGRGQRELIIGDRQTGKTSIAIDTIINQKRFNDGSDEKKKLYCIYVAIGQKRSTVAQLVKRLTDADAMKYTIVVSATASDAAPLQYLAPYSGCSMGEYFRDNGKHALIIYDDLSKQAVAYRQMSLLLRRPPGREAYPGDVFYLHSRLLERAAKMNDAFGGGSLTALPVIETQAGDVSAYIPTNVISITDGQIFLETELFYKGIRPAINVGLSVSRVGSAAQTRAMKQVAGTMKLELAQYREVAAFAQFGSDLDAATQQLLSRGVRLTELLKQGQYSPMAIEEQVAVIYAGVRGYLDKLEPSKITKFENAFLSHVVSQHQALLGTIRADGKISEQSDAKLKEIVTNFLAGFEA

For the molecule “MPPCLTTWLSQLLKDNSYPLVLGPKNFGATPNKSNNHAHYYNHPNPDFPNSPHPYHPR [SHMOOSE]”, the “toxic effects and behavior changes” value in series [1] is “did not display toxic effects nor behavior changes”. For the same molecule, in series [2], the entry into circulation entry is listed as “goes into the blood stream” and the half-life entry is reported as “strong half-life”. “100 (MPPCITTWISQIIKDNSYPLVLGPKNFGATPNKSNNHAHYYNHPNPDFPNSPHPYHPR) [compound 100]”: in the series on SHSY5Y, the “% Efficacy” value worked out at 4.274%. Consider “102 (MPPCLTTWLSQIIKDNSYPLVLGPKNFGATPNKSNNHAHYYNHPNPDFPNSPHPYHPR) [compound 102]”, for which the “% Efficacy” value in the series with SHSY5Y was −25.64%. Take “82 (PKNFGADPNKDNNHAHDDNHPNPNF) [compound 82]”: in the series with SHSY5Y, the “% Efficacy” value is −146.18%. As for “107 (MPSCLTTWISSIISDNSYPLVLGPKNFGATPNKSNNHAHYYNHPNPDFPNSPHPYHPR) [compound 107]”, in the series on SHSY5Y, the “% Efficacy” value came out at 134.2%. The same measure, in the same setting: the result for “80 (DNNHAHDDNHPNPDFPNDPHPDHPR) [compound 80]” reads −214.13%; that for “90 (NKDNNHAHDDNHPNPNFPNDPHPDH) [compound 90]”, −226.81%. Same read-out and setting: the result for “88 (DPNKDNNHAHDDNHPNPNFPNDPHP) [compound 88]” reads −84.19%. Same read-out and setting: the result for “64 (DPLVLGPKNFGADPNKDNNHAHDDN) [compound 64]” reads −254.41%. For the molecule “22 (LGPKNFGATPNKSNNHAHYYNHPNP) [compound 22]”, in the series with SHSY5Y, the “% Efficacy” value was −140.81%.

With “105 (MPSCLTTWLSSLLKDNSYPLVLGPKNFGATPNKSNNHAHYYNHPNPDFPNSPHPYHPR) [compound 105]”, the “% Efficacy” value in the series on SHSY5Y stood at 44.44%.

B1: SHMOOSE (Small Human Mitochondrial Open reading frame Over the SErine-tRNA) peptide (peptide)
peptide: MPPCLTTWLSQLLKDNSYPLVLGPKNFGATPNKSNNHAHYYNHPNPDFPNSPHPYHPR
notes: Endogenous SHMOOSE in Western blots is treated as the same molecule; also called wild type SHMOOSE; synthetic SHMOOSE
In the case of B1, the values for the binding result (with ATP5A1; in series [3]) were “no binding” and “binds”, respectively.
